Measurements taken from ChEMBL document CHEMBL1140354, “Novel peptide derivatives of bleomycin A5: synthesis, antitumor activity and interaction with DNA” (Bioorg Med Chem Lett, 2005).
pIC50: −log10 of the molar value.

Key:
Nucleic Acid = assay: Thermal denaturation alteration for calf thymus DNA (CT-DNA) binding to the compound was determined; type: functional; conditions: Bos taurus
MDA-MB-435 = assay: In vitro antitumor activity against human MDA-MB-435 tumor cell line; type: functional, cell-based
HL-60 = assay: In vitro antitumor activity against humanHL-60 tumor cell line; type: functional, cell-based; conditions: Homo sapiens
BGC-823 = assay: In vitro antitumor activity against humanBGC-823 tumor cell line; type: functional, cell-based; conditions: Homo sapiens
Calf thymus DNA = assay: Apparent binding constant to calf thymus DNA (CT-DNA); type: nucleic-acid assay; conditions: Bos taurus
[1] = In vitro antitumor activity against human PC-3MIE8 tumor cell line; type: functional

Compound	pIC50 (MDA-MB-435)	pIC50 (HL-60)	pIC50 (BGC-823)	Kb (Calf thymus DNA)	pIC50 [1]	ΔTm (Nucleic Acid)
Cc1c(N)nc([C@H](CC(N)=O)NC[C@H](N)C(N)=O)nc1C(=O)N[C@H](C(=O)N[C@H](C)[C@@H](O)[C@H](C)C(=O)N[C@H](C(=O)NCCc1nc(-c2nc(C(=O)NCCCNCCCCNC(=O)[C@@H](N)C(C)C)cs2)cs1)[C@@H](C)O)[C@@H](O[C@@H]1O[C@@H](CO)[C@@H](O)[C@H](O)[C@@H]1O[C@H]1O[C@H](CO)[C@@H](O)[C@H](OC(N)=O)[C@@H]1O)c1c[nH]cn1	6.89	6.18	5.86	325000	5.74	1.9 °C
Cc1c(N)nc([C@H](CC(N)=O)NC[C@H](N)C(N)=O)nc1C(=O)N[C@H](C(=O)N[C@H](C)[C@@H](O)[C@H](C)C(=O)N[C@H](C(=O)NCCc1nc(-c2nc(C(=O)NCCCNCCCCNC(=O)[C@H](CCCCN)NC(=O)[C@@H](N)C(C)C)cs2)cs1)[C@@H](C)O)[C@@H](O[C@@H]1O[C@@H](CO)[C@@H](O)[C@H](O)[C@@H]1O[C@H]1O[C@H](CO)[C@@H](O)[C@H](OC(N)=O)[C@@H]1O)c1c[nH]cn1	6.66	6.01	6.00	463000	5.48	7 °C
Cc1c(N)nc([C@H](CC(N)=O)NC[C@H](N)C(N)=O)nc1C(=O)N[C@H](C(=O)N[C@H](C)[C@@H](O)[C@H](C)C(=O)N[C@H](C(=O)NCCc1nc(-c2nc(C(=O)NCCCNCCCCN)cs2)cs1)[C@@H](C)O)[C@@H](O[C@@H]1O[C@@H](CO)[C@@H](O)[C@@H](O)[C@@H]1O[C@H]1O[C@H](CO)[C@@H](O)[C@H](OC(N)=O)[C@@H]1O)c1c[nH]cn1	5.79	6.60	5.90	457000	5.83	2.9 °C
Cc1c(N)nc([C@H](CC(N)=O)NC[C@H](N)C(N)=O)nc1C(=O)N[C@H](C(=O)N[C@H](C)[C@@H](O)[C@H](C)C(=O)N[C@H](C(=O)NCCc1nc(-c2nc(C(=O)NCCCNCCCCNC(=O)[C@H](CC(C)C)NC(=O)[C@@H](N)C(C)C)cs2)cs1)[C@@H](C)O)[C@@H](O[C@@H]1O[C@@H](CO)[C@@H](O)[C@@H](O)[C@@H]1O[C@H]1O[C@H](CO)[C@@H](O)[C@H](OC(N)=O)[C@@H]1O)c1c[nH]cn1	6.49	6.20	6.06	423000	5.88	1.8 °C
Cc1c(N)nc([C@H](CC(N)=O)NC[C@H](N)C(N)=O)nc1C(=O)N[C@H](C(=O)N[C@H](C)[C@@H](O)[C@H](C)C(=O)N[C@H](C(=O)NCCc1nc(-c2nc(C(=O)NCCCNCCCCNC(=O)[C@H](N)CC(C)C)cs2)cs1)[C@@H](C)O)[C@@H](O[C@@H]1O[C@@H](CO)[C@@H](O)[C@H](O)[C@@H]1O[C@H]1O[C@H](CO)[C@@H](O)[C@H](OC(N)=O)[C@@H]1O)c1c[nH]cn1	6.77	6.43	6.14	283000	5.90	1.5 °C

Second part, led by results:

pIC50 (MDA-MB-435)	pIC50 (HL-60)	pIC50 (BGC-823)	Kb (Calf thymus DNA)	pIC50 [1]	Compound	ΔTm (Nucleic Acid)
6.89	6.51	6.10	249000	6.10	Cc1c(N)nc([C@H](CC(N)=O)NC[C@H](N)C(N)=O)nc1C(=O)N[C@H](C(=O)N[C@H](C)[C@@H](O)[C@H](C)C(=O)N[C@H](C(=O)NCCc1nc(-c2nc(C(=O)NCCCNCCCCNC(=O)[C@H](N)C(C)C)cs2)cs1)[C@@H](C)O)[C@@H](O[C@@H]1O[C@@H](CO)[C@@H](O)[C@H](O)[C@@H]1O[C@H]1O[C@H](CO)[C@@H](O)[C@H](OC(N)=O)[C@@H]1O)c1c[nH]cn1	1.1 °C
7.00	6.29	6.04	559000	5.97	Cc1c(N)nc([C@H](CC(N)=O)NC[C@H](N)C(N)=O)nc1C(=O)N[C@H](C(=O)N[C@H](C)[C@@H](O)[C@H](C)C(=O)N[C@H](C(=O)NCCc1nc(-c2nc(C(=O)NCCCNCCCCNC(=O)[C@H](N)CCCCN)cs2)cs1)[C@@H](C)O)[C@@H](O[C@@H]1O[C@@H](CO)[C@@H](O)[C@H](O)[C@@H]1O[C@H]1O[C@H](CO)[C@@H](O)[C@H](OC(N)=O)[C@@H]1O)c1c[nH]cn1	8.4 °C
7.15	7.15	6.22	496000	5.94	Cc1c(N)nc([C@H](CC(N)=O)NC[C@H](N)C(N)=O)nc1C(=O)N[C@H](C(=O)N[C@H](C)[C@@H](O)[C@H](C)C(=O)N[C@H](C(=O)NCCc1nc(-c2nc(C(=O)NCCCNCCCCNC(=O)[C@H](CCCCN)NC(=O)[C@@H](CC(C)C)NC(=O)[C@@H](N)C(C)C)cs2)cs1)[C@@H](C)O)[C@@H](O[C@@H]1O[C@@H](CO)[C@@H](O)[C@H](O)[C@@H]1O[C@H]1O[C@H](CO)[C@@H](O)[C@H](OC(N)=O)[C@@H]1O)c1c[nH]cn1	4.7 °C
7.05	6.57	6.03	260000	5.93	Cc1c(N)nc([C@H](CC(N)=O)NC[C@H](N)C(N)=O)nc1C(=O)N[C@H](C(=O)N[C@H](C)[C@@H](O)[C@H](C)C(=O)N[C@H](C(=O)NCCc1nc(-c2nc(C(=O)NCCCNCCCCNC(=O)[C@H](CC(C)C)NC(=O)[C@H](N)C(C)C)cs2)cs1)[C@@H](C)O)[C@@H](O[C@@H]1O[C@@H](CO)[C@@H](O)[C@H](O)[C@@H]1O[C@H]1O[C@H](CO)[C@@H](O)[C@H](OC(N)=O)[C@@H]1O)c1c[nH]cn1	0.5 °C
7.00	6.13	5.93	408000	5.72	Cc1c(N)nc([C@H](CC(N)=O)NC[C@H](N)C(N)=O)nc1C(=O)N[C@H](C(=O)N[C@H](C)[C@@H](O)[C@H](C)C(=O)N[C@H](C(=O)NCCc1nc(-c2nc(C(=O)NCCCNCCCCNC(=O)[C@H](CCCCN)NC(=O)[C@H](N)C(C)C)cs2)cs1)[C@@H](C)O)[C@@H](O[C@@H]1O[C@@H](CO)[C@@H](O)[C@H](O)[C@@H]1O[C@H]1O[C@H](CO)[C@@H](O)[C@H](OC(N)=O)[C@@H]1O)c1c[nH]cn1	5.9 °C
